Target: T1, human plasma protein factor Xa (Homo sapiens, UniProt P00742)
T1 construct: measure proteolytic activity of the enzyme (factor Xa); purchased Haematologic Technologies (Essex Junction, Vt.); host or cells: human plasma
Assay: Factor Xa IC50 determination: cleavage of paranitroanilide substrate S-2765 in 96-well plates
Assay type: biochemical
Details: fXa 1 nM, S-2765 100 μM, Tris buffered saline pH 7.4, room temperature
Text: This example illustrates methods for evaluating the compounds of the invention, along with results obtained for such assays. The in vitro and in vivo Factor Xa isoform activities of the inventive compounds can be determined by various procedures known in the art, such as a test for their ability to inhibit the activity of the Factor Xa isoform. […] The IC50 value is the concentration (in nM) of the compound required to provide 50% inhibition of Factor Xa isoform.
An in vitro assay for detecting and measuring inhibition activity against Factor Xa is as follows:
The substrate S-2765 (Z-D-Arg-Gly-Arg-pNA.HCl) was obtained from Diapharma (West Chester, Ohio).
The human plasma protein factor Xa was purchased from Haematologic Technologies (Essex Junction, Vt.).
All assays, which are performed in 96-well microtiter plates, measure proteolytic activity of the enzyme (factor Xa) by following cleavage of paranitroanilide substrate. The assay buffer used for proteolytic assays was Tris buffered saline (20 mM Tris, 150 mM NaCl, 5 mM CaCl2, 0.1% Bovine serum albumin (BSA), 5% Dimethly Sulfoxide (DMSO) pH 7.4). In a 96-well microtiter plate, inhibitor was serially diluted to give a range of concentrations from 0.01 nM to 10 μM (final). Duplicate sets of wells were assayed and control wells without inhibitor were included. Enzyme was added to each well, (fXa concentration=1 nM), the plate was shaken for 5 seconds and then incubated for 5 minutes at room temperature. S2765 was added (100 μM final) and the plate was shaken for 5 seconds (final liquid volume in each well was 200 μl). The degree of substrate hydrolysis was measured at 405 nm on a Thermomax plate reader (Molecular Devices, Sunnyvale, Calif.) for 2 minutes. The initial velocities (mOD/min), for each range of inhibitor concentrations, were fitted to a four parameter equation using Softmax data analysis software. The parameter C, derived from the resulting curve-fit, corresponded to the concentration for half maximal inhibition (IC50).

T1 sequence (P00742 235-488 limits assumed): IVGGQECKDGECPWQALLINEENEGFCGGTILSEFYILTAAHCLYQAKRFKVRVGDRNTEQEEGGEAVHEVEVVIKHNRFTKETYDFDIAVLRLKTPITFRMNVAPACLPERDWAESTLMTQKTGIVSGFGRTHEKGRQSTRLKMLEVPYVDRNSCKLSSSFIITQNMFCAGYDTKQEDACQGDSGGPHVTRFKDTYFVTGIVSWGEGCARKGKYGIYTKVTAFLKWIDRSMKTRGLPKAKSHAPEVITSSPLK
T1 sequence (P00742 41-179 partner limits assumed): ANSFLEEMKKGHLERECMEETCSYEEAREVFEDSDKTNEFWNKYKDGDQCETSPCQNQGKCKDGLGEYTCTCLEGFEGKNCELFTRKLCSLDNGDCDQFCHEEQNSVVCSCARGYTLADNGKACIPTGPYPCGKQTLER

Structure (SMILES) | IC50
CC(=N)N1CCC(C2=NOC(CNC(=O)c3ccc(Cl)s3)C2)CC1 (stereo not drawn) [Example 173, 5-Chloro-thiophene-2-carboxylic acid {3-[1-(1-imino-ethyl)-piperidin-4-yl]-4,5-dihydro-isoxazol-5-ylmethyl}-amide] | ≥ 0.5 µM
C[C@H](NC(=O)c1ccc(Cl)s1)c1cc(-c2ccc(C(=N)N3CCCC3)cc2)no1 [Example 55, (S)-5-Chloro-thiophene-2-carboxylic acid (1-{3-[4-(imino-pyrrolidin-1-yl-methyl)-phenyl]-isoxazol-5-yl}-ethyl)-amide] | ≥ 0.5 µM
CC(C)Oc1cc(C(=N)N2CCCC2)ccc1C1=NOC(CNC(=O)c2ccc(Cl)s2)C1 (stereo not drawn) [Example 111, 5-Chloro-thiophene-2-carboxylic acid {3-[4-(imino-pyrrolidin-1-yl-methyl)-2-isopropoxy-phenyl]-4,5-dihydro-isoxazol-5-ylmethyl}-amide] | ≤ 0.1 µM
O=C(NCC1CC(c2ccc(C(=O)N3CCC3)cc2)=NO1)c1ccc(Cl)s1 (stereo not drawn) [Example 163, 5-Chloro-thiophene-2-carboxylic acid {3-[4-(azetidine-1-carbonyl)-phenyl]-4,5-dihydro-isoxazol-5-ylmethyl}-amide] | ≤ 0.1 µM
O=C(NCc1cc(-c2ccc(Nc3ccccn3)cc2)no1)c1ccc(Cl)s1 [Example 252, 5-Chloro-thiophene-2-carboxylic acid {3-[4-(pyridin-2-ylamino)-phenyl]-isoxazol-5-ylmethyl}-amide] | ≥ 0.5 µM
CN1CCC(Nc2ccc(C3=NOC(CNC(=O)c4ccc(Cl)s4)C3)cc2)CC1 (stereo not drawn) [Example 237, 5-Chloro-thiophene-2-carboxylic acid {3-[4-(1-methyl-piperidin-4-ylamino)-phenyl]-4,5-dihydro-isoxazol-5-ylmethyl}-amide] | 0.1 to 0.5 µM
CCOC(=O)C1CCN(C(=N)c2ccc(-c3nc(CNC(=O)c4ccc(Cl)s4)cs3)cc2)CC1 [Example 354, Ethyl 1-((4-(4-((2-chlorothiophene-5-carboxamido)methyl)thiazol-2-yl)phenyl)(imino)methyl)piperidine-4-carboxylate] | 0.1 to 0.5 µM
O=C(NCC1CC(c2ccc(Nc3ccncc3)cc2)=NO1)c1ccc(Cl)s1 (stereo not drawn) [Example 226, 5-Chloro-thiophene-2-carboxylic acid {3-[4-(pyridin-4-ylamino)-phenyl]-4,5-dihydro-isoxazol-5-ylmethyl}-amide] | ≤ 0.1 µM
N=C(c1ccc(-c2cncc(CNC(=O)c3ccc(Cl)s3)c2)cc1)N1CCCCC1 [Example 373, 5-Chloro-N-((5-(4-(imino(piperidin-1-yl)methyl)phenyl)pyridin-3-yl)methyl)thiophene-2-carboxamide] | ≤ 0.1 µM
N=C(c1ccc(C2=NOC(CNC(=O)c3ccc(Cl)s3)C2)c(N2CCCC2)c1)N1CCCCC1 (stereo not drawn) [Example 81, 5-Chloro-thiophene-2-carboxylic acid {3-[4-(imino-piperidin-1-yl-methyl)-2-pyrrolidin-1-yl-phenyl]-4,5-dihydro-isoxazol-5-ylmethyl}-amide] | ≥ 0.5 µM
CN1CCN(c2ccc(C3=NOC(CNC(=O)c4ccc(Cl)s4)C3)cc2)CC1 (stereo not drawn) [Example 235, 5-Chloro-thiophene-2-carboxylic acid {3-[4-(4-methyl-piperazin-1-yl)-phenyl]-4,5-dihydro-isoxazol-5-ylmethyl}-amide] | 0.1 to 0.5 µM
C[C@@H](NC(=O)c1ccc(Cl)s1)c1cc(-c2ccc(C(=N)N(C)C)cc2)no1 [Example 49, (R)-5-Chloro-thiophene-2-carboxylic acid (1-{3-[4-(N,N-dimethyl-carbamimidoyl)-phenyl]-isoxazol-5-yl}-ethyl)-amide] | ≤ 0.1 µM
CN(C)CCN(C)C(=N)c1ccc(C2=NOC(C)(CNC(=O)c3ccc(Cl)s3)C2)cc1 (stereo not drawn) [Example 65, 5-Chloro-thiophene-2-carboxylic acid (3-{4-[N-(2-dimethylamino-ethyl)-N-methyl-carbamimidoyl]-phenyl}-5-methyl-4,5-dihydro-isoxazol-5-ylmethyl)-amide] | ≤ 0.1 µM
CN(C)Cc1ccccc1-c1cccc(-c2cc(CNC(=O)c3ccc(Cl)s3)on2)c1 [Example 268, 5-Chloro-thiophene-2-carboxylic acid [3-(T-dimethylaminomethyl-biphenyl-3-yl)-isoxazol-5-ylmethyl]-amide] | ≥ 0.5 µM
CCN1CCC(c2cc(CNC(=O)c3ccc(Cl)s3)on2)CC1 [Example 177, 5-Chloro-thiophene-2-carboxylic acid [3-(1-ethyl-piperidin-4-yl)-isoxazol-5-ylmethyl]-amide] | ≥ 0.5 µM
N=C(c1ccc(-c2nc(CNC(=O)c3ccc(Cl)s3)co2)cc1)N1CCCCC1 [Example 341, 5-Chloro-N-((2-(4-(imino(piperidin-1-yl)methyl)phenyl)oxazol-4-yl)methyl)thiophene-2-carboxamide] | ≤ 0.1 µM
O=C(NCc1cn(-c2ccc(N3CCNCC3)nc2)nn1)c1ccc(Cl)s1 [Example 390, 5-Chloro-N-((1-(6-(piperazin-1-yl)pyridin-3-yl)-1H-1,2,3-triazol-4-yl)methyl)thiophene-2-carboxamide] | 0.1 to 0.5 µM
N=C(c1ccccn1)N1CCC(C2=NOC(CNC(=O)c3ccc(Cl)s3)C2)CC1 (stereo not drawn) [Example 175, 5-Chloro-thiophene-2-carboxylic acid {3-[1-(imino-pyridin-2-yl-methyl)-piperidin-4-yl]-4,5-dihydro-isoxazol-5-ylmethyl}-amide] | ≥ 0.5 µM
O=C(NCc1cc(-c2ccc(-c3cccc(CN4CCCC4)c3)cc2)no1)c1ccc(Cl)s1 [Example 212, 5-Chloro-thiophene-2-carboxylic acid [3-(3′-pyrrolidin-1-ylmethyl-biphenyl-4-yl)-isoxazol-5-ylmethyl]-amide] | ≥ 0.5 µM
O=C(NCc1cc(-c2ccc(-c3cccnc3)cc2)no1)c1ccc(Cl)s1 [Example 192, 5-Chloro-thiophene-2-carboxylic acid [3-(4-pyridin-3-yl-phenyl)-isoxazol-5-ylmethyl]-amide] | ≥ 0.5 µM

Continued, values first:

IC50 | Structure (SMILES)
≤ 0.1 µM | COc1cc(C2=NCCN2C)ccc1-c1cc(CNC(=O)c2ccc(Cl)s2)on1 [Example 119, 5-Chloro-thiophene-2-carboxylic acid {3-[2-methoxy-4-(1-methyl-4,5-dihydro-1H-imidazol-2-yl)-phenyl]-isoxazol-5-ylmethyl}-amide]
≤ 0.1 µM | O=C(NCC1CC(c2ccc(Nc3cccnc3)cc2)=NO1)c1ccc(Cl)s1 (stereo not drawn) [Example 225, 5-Chloro-thiophene-2-carboxylic acid {3-[4-(pyridin-3-ylamino)-phenyl]-4,5-dihydro-isoxazol-5-ylmethyl}-amide]
0.1 to 0.5 µM | O=C(NCc1cn(-c2ccc(N3CCCCC3)nc2)nn1)c1ccc(Cl)s1 [Example 392, 5-Chloro-N-((1-(6-(piperidin-1-yl)pyridin-3-yl)-1H-1,2,3-triazol-4-yl)methyl)thiophene-2-carboxamide]
≤ 0.1 µM | N=C(c1ccc(-n2cc(CNC(=O)c3ccc(Cl)s3)nn2)cc1)N1CCCC1 [Example 318, 5-Chloro-N-((1-(4-(imino(pyrrolidin-1-yl)methyl)phenyl)-1H-1,2,3-triazol-4-yl)methyl)thiophene-2-carboxamide]
≤ 0.1 µM | CN(C)C(=N)c1ccc(-c2cc(CNC(=O)c3ccc(Cl)s3)on2)c(Oc2ccccc2)c1 [Example 130, 5-Chloro-thiophene-2-carboxylic acid {3-[4-(N,N-dimethyl-carbamimidoyl)-2-phenoxy-phenyl]-isoxazol-5-ylmethyl}-amide]
≤ 0.1 µM | CSc1cc(C(=N)N(C)C)ccc1-c1cc(CNC(=O)c2ccc(Cl)s2)on1 [Example 140, 5-Chloro-thiophene-2-carboxylic acid {3-[4-(N,N-dimethyl-carbamimidoyl)-2-methylsulfanyl-phenyl]-isoxazol-5-ylmethyl}-amide]
≤ 0.1 µM | N=C(c1ccc(-n2cnc(CNC(=O)c3ccc(Cl)s3)c2)cc1)N1CCC1 [Example 366, N-((1-(4-(Azetidin-1-yl(imino)methyl)phenyl)-1H-imidazol-4-yl)methyl)-5-chlorothiophene-2-carboxamide]
≥ 0.5 µM | N=C(N)N1CCC(c2cc(CNC(=O)c3ccc(Cl)s3)on2)CC1 [Example 179, 5-Chloro-thiophene-2-carboxylic acid [3-(1-carbamimidoyl-piperidin-4-yl)-isoxazol-5-ylmethyl]-amide]
≤ 0.1 µM | O=C(NCc1cn(-c2ccc(N3CCSCC3=O)cc2)nn1)c1ccc(Cl)s1 [Example 302, 5-Chloro-N-((1-(4-(3-oxothiomorpholino)phenyl)-1H-1,2,3-triazol-4-yl)methyl)thiophene-2-carboxamide]
≥ 0.5 µM | O=C(NCc1cc(-c2ccc(N3CCCC3)cc2)no1)c1ccc(Cl)s1 [Example 256, 5-Chloro-thiophene-2-carboxylic acid [3-(4-pyrrolidin-1-yl-phenyl)-isoxazol-5-ylmethyl]-amide]
